Reference: patent US8921576B2, “Spiroindoline compound, and medicinal agent comprising same” (Kowa Company, Ltd., priority 2011, dated 2014)

Each molecule was assayed against T1, GST-GK derived from human liver GK (Homo sapiens, UniProt P35557) (assay: In vitro GK activity measurement test (G6PDH-coupled, OD340)). Settings: test compound 1 μmol/L; glucose 2.5 mmol/L; 25° C.; OD340 slope with compound / without compound; read-out: GK activation rate (%).
T1 construct: made in house; host or cells: Escherichia coli DH5α
T1 sequence (P35557 1-466 isoform P35557-2): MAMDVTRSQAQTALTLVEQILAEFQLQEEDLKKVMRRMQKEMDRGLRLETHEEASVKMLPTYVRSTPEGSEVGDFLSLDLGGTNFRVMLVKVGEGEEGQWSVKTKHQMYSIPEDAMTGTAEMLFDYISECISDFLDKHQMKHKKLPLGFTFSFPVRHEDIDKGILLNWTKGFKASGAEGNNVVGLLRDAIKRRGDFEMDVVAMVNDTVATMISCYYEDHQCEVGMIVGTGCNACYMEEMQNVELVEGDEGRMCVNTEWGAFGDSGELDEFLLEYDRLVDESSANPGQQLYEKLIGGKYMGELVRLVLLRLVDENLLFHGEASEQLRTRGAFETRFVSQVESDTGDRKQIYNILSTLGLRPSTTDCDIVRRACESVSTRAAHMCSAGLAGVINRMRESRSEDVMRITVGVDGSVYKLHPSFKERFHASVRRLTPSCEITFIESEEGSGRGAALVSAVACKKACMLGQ
Format: biochemical
Excerpt: cDNA (GenBank Accession No. NM_033507, human glucokinase, variant 2) encoding human liver-type GK polypeptide was cloned by performing a polymerase chain reaction (hereinafter referred to as “PCR”) using a human liver cDNA library (Human liver QUICK-Clone cDNA, TAKARA BIO INC.), and the thus cloned cDNA was then introduced into an expression vector (pGEX-3X, GE Healthcare Japan) for glutathione S transferase (hereinafter referred to as GST) fusion protein expression. The resulting vector was introduced into Escherichia coli (Competent high DH5α, Toyobo Co., Ltd.), and the transformed Escherichia coli was then cultured at 37° C. Thereafter, Isopropyl β-D-1-thiogalactopyranoside (final concentration: 1 mmol/L, Sigma Aldrich Japan) was added to the culture, and the obtained mixture was then cultured at 30° C. for 3 hours. Thereafter, a cell mass was recovered. The recovered cell mass was subjected to freezing-and-thawing, and the resulting cell mass was then suspended in phosphate buffer with final concentration of 1% Triton X-100, followed by disintegration with an ultrasonic disruptor. The homogenate was centrifuged at 33,200 rpm at 4° C. for 1 hour. Thereafter, the supernatant was recovered, and a GST-GK fusion protein was then purified using a glutathione column (GSTrap FF, GE Healthcare Japan). The obtained GST-GK fusion protein was divided into some portions each having a small volume, and the thus divided proteins were then preserved at −80° C.
A GK assay method was carried out at 25° C. at a final incubation volume of 100 μL in a flat-bottom 96-well assay plate. An assay buffer comprised 25 mmol/L Hepes buffer (pH 7.1), 25 mmol/L KCl, 2.5 mmol/L or 10 mmol/L D-glucose, 5 mmol/L ATP, 1 mmol/L nicotinamide adenine dinucleotide phosphate (abbreviated as NADP), 2 mmol/L MgCl2, 1 mmol/L dithiothreitol (DTT), 2 units/mL glucose-6 phosphate dehydrogenase (G6PDH), and 1 μg/mL GST-GK derived from human liver GK. ATP, G6PDH, and NADP were purchased from Roche Diagnostics. […] The thus mixed solution was preincubated in an incubator in which the temperature was controlled at 25° C. for 15 minutes. Subsequently, the reaction was initiated by adding 10 μL of the GST-GK solution to the reaction mixture, resulting in a final concentration of 0.1 μg/mL. After initiation of the reaction, an increase in the optical concentration at 340 nm (OD340) was monitored with a microplate spectrophotometer (Varsamax, Molecular Devices Japan K.K.) every 10 seconds over an incubation period of 10 minutes. An inclination of the OD340 increase was defined as raw data. The GK activating rate was indicated as a numerical value obtained from the expression: (Inclination of OD340 increase by addition of the test compound)/(inclination of OD340 increase without addition of the test compound). The results of the GK activating rate obtained at a test compound concentration of 1 μmol/L under the condition of a glucose concentration of 2.5 mmol/L are shown in the following table.

SMILES | activity at 1 µM
COCCCN(Cc1ccccc1)S(=O)(=O)c1ccc2c(c1)C1(CCN(C(C)=O)C1)CN2C(=O)Nc1nc2ccc(OC)nc2s1 (stereo not shown) [Example 289, 1′-Acetyl-5-(N-benzyl-N-(3-methoxypropyl)sulfamoyl)-N-(5-methoxythiazolo[5,4-b]pyridin-2-yl)spiro[indoline-3,3′-pyrrolidine]-1-carboxamide] | 752%
CC(=O)N1CC(CNC(=O)N2CCC3(C2)CN(C(=O)Nc2ncc(Cl)s2)c2ccc(C(F)(F)F)cc23)C1 (stereo not shown) [Example 445, N1′-((1-acetylazetidin-3-yl)methyl)-N1-(5-chlorothiazol-2-yl)-5-(trifluoromethyl)spiro[indoline-3,3′-pyrrolidine]-1,1′-dicarboxamide] | 500%
COC(=O)N1CCC2(C1)CN(C(=O)Nc1ncc(SCCCC(=O)N3CC(O)C3)s1)c1ccc(Cl)cc12 (stereo not shown) [Example 170, methyl 5-chloro-1-((5-((4-(3-hydroxyazetidin-1-yl)-4-oxobutyl)thio)thiazol-2-yl)carbamoyl)spiro[indoline-3,3′-pyrrolidine]-1′-carboxylate] | 506%
COC(=O)N1CC[C@@]2(C1)CN(C(=O)Nc1ncc(Cl)s1)c1ccc(Br)cc12 [Example 320, (S)-methyl 5-bromo-1-((5-chlorothiazol-2-yl)carbamoyl)spiro[indoline-3,3′-pyrrolidin]-1′-ylcarboxylate] | 818%
CC(=O)N1CCC2(C1)CN(C(=O)Nc1ncc(Cl)s1)c1ccc(Br)cc12 (stereo not shown) [Example 3, 1′-acetyl-5-bromo-N-(5-chlorothiazol-2-yl)spiro[indoline-3,3′-pyrrolidine]-1-carboxamide] | 716%
COc1ccc2nc(NC(=O)N3CC4(CCN(C(C)=O)C4)c4cc(S(=O)(=O)NCc5ccccc5OC)ccc43)sc2n1 (stereo not shown) [Example 263, 1′-Acetyl-5-(N-(2-methoxybenzyl)sulfamoyl)-N-(5-methoxythiazolo[5,4-b]pyridin-2-yl)spiro[indoline-3,3′-pyrrolidine]-1-carboxamide] | 597%
NCC(=O)N1CC[C@@]2(C1)CN(C(=O)Nc1ncc(Cl)s1)c1ccc(Cl)cc12 [Example 353, (R)-1′-(2-aminoacetyl)-5-chloro-N-(5-chlorothiazol-2-yl)spiro[indoline-3,3′-pyrrolidine]-1-carboxamide] | 486%
COC(=O)N1CCC2(C1)CN(C(=O)Nc1ncc(SCCC(=O)N3CCOCC3)s1)c1ccc(Cl)cc12 (stereo not shown) [Example 154, methyl 5-chloro-1-((5-((3-morpholino-3-oxopropyl)thio)thiazol-2-yl)carbamoyl)spiro[indoline-3,3′-pyrrolidine]-1′-carboxylate] | 473%
CNC(=O)N1CC[C@@]2(C1)CN(C(=O)Nc1ncc(F)s1)c1ccc(Cl)cc12 [Example 374, (R)-5-chloro-N1-(5-fluorothiazol-2-yl)-N1′-methylspiro[indoline-3,3′-pyrrolidine]-1,1′-dicarboxamide] | 437%
COc1ccc2nc(NC(=O)N3CC4(CCN(C(C)=O)C4)c4cc(S(=O)(=O)N(CCO)CC5CC5)ccc43)sc2n1 (stereo not shown) [Example 302, 1′-acetyl-5-(N-(cyclopropylmethyl)-N-(2-hydroxyethyl)sulfamoyl)-N-(5-methoxythiazolo[5,4-b]pyridin-2-yl)spiro[indoline-3,3′-pyrrolidine]-1-carboxamide] | 843%
CNC(=O)N1CC[C@@]2(C1)CN(C(=O)Nc1ncc(OC)s1)c1ccc(C#N)cc12 [Example 381, (R)-5-Cyano-N1-(5-methoxythiazol-2-yl)-N1′-methylspiro[indoline-3,3′-pyrrolidine]-1,1′-dicarboxamide] | 465%
CNC(=O)N1CC[C@@]2(C1)CN(C(=O)Nc1ncc(F)s1)c1ccc(C(F)(F)F)cc12 [Example 487, (R)—N1-(5-Fluorothiazol-2-yl)-N1′-methyl-5-(trifluoromethyl)spiro[indoline-3,3′-pyrrolidine]-1,1′-dicarboxamide] | 659%
COC(=O)N1CCC2(C1)CN(C(=O)Nc1ncc(SCCCNS(=O)(=O)C3CC3)s1)c1ccc(Cl)cc12 (stereo not shown) [Example 179, methyl 5-chloro-1-((5-((3-(cyclopropanesulfonamido)propyl)thio)thiazol-2-yl)carbamoyl)spiro[indoline-3,3′-pyrrolidine]-1′-carboxylate] | 669%
COC(=O)N1CC[C@@]2(C1)CN(C(=O)Nc1nc3ccc(OC)nc3s1)c1ccc(S(=O)(=O)N(CCO)Cc3ccccc3)cc12 [Example 345, (S)-methyl 5-(N-benzyl-N-(2-hydroxyethyl)sulfamoyl)-1-((5-methoxythiazolo[5,4-b]pyridin-2-yl)carbamoyl)spiro[indoline-3,3′-pyrrolidine]-1′-carboxylate] | 785%
COC(=O)N1CCC2(C1)CN(C(=O)Nc1ncc(SCCCNC(=O)C3CC3)s1)c1ccc(Cl)cc12 (stereo not shown) [Example 454, methyl 5-chloro-1-((5-((3-(cyclopropanecarboxamido)propyl)thio)thiazol-2-yl)carbamoyl)spiro[indoline-3,3′-pyrrolidine]-1′-carboxylate] | 575%
COCCCSc1cnc(NC(=O)N2CC3(CCN(C(=O)OC)C3)c3cc(Cl)ccc32)s1 (stereo not shown) [Example 162, Methyl 5-chloro-1-((5-((3-methoxypropyl)thio)thiazol-2-yl)carbamoyl)spiro[indoline-3,3′-pyrrolidine]-1′-carboxylate] | 484%
O=C(NO)N1CCC2(C1)CN(C(=O)Nc1ncc(Cl)s1)c1ccc(Cl)cc12 (stereo not shown) [Example 481, 5-chloro-N1-(5-chlorothiazol-2-yl)-N1′-hydroxyspiro[indoline-3,3′-pyrrolidine]-1,1′-dicarboxamide] | 602%
COC(=O)N1CCC2(C1)CN(C(=O)Nc1ncc(SCCCO)s1)c1ccc(Cl)cc12 (stereo not shown) [Example 161, Methyl 5-chloro-1-((5-((3-hydroxypropyl)thio)thiazol-2-yl)carbamoyl)spiro[indoline-3,3′-pyrrolidine]-1′-carboxylate] | 514%
CNC(=O)N1CC[C@@]2(C1)CN(C(=O)Nc1ncc(OC)s1)c1ccc(C(F)(F)F)cc12 [Example 489, (R)—N1-(5-Methoxythiazol-2-yl)-N1′-methyl-5-(trifluoromethyl)spiro[indoline-3,3′-pyrrolidine]-1,1′-dicarboxamide] | 645%
CNC(=O)CCCSc1cnc(NC(=O)N2CC3(CCN(C(=O)OC)C3)c3cc(Cl)ccc32)s1 (stereo not shown) [Example 164, methyl 5-chloro-1-((5-((4-(methylamino)-4-oxobutyl)thio)thiazol-2-yl)carbamoyl)spiro[indoline-3,3′-pyrrolidine]-1′-carboxylate] | 567%
COc1ccc2nc(NC(=O)N3CC4(CCN(C(C)=O)C4)c4cc(S(=O)(=O)NCc5ccco5)ccc43)sc2n1 (stereo not shown) [Example 271, 1′-Acetyl-5-(N-(furan-2-ylmethyl)sulfamoyl)-N-(5-methoxythiazolo[5,4-b]pyridin-2-yl)spiro[indoline-3,3′-pyrrolidine]-1-carboxamide] | 578%
COC(=O)N1CCC2(C1)CN(C(=O)Nc1nc3ccc(OC)nc3s1)c1ccc(S(=O)(=O)N(CCC(=O)O)Cc3ccccc3)cc12 (stereo not shown) [Example 307, 3-(N-benzyl-1′-(methoxycarbonyl)-1-((5-methoxythiazolo[5,4-b]pyridin-2-yl)carbamoyl)spiro[indoline-3,3′-pyrrolidin]-5-ylsulfonamido)propionic acid] | 887%
